biological target: human APJ receptor (Homo sapiens (Human), UniProt P35414); assay: biochemical; assay type: biochemical; conditions: [35S]GTPγS binding, CHO membranes expressing human APJ receptor; read-out: Activity hAPJ SPA EC50 IP
Method in brief: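 GTPγS binding on membranes from CHO cells stably expressing FLAG-tagged human APJ, with optimized GDP, MgCl2 and NaCl; incubated 90 min at RT before imaging read-out.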

Sequence of human APJ receptor (P35414 whole entry): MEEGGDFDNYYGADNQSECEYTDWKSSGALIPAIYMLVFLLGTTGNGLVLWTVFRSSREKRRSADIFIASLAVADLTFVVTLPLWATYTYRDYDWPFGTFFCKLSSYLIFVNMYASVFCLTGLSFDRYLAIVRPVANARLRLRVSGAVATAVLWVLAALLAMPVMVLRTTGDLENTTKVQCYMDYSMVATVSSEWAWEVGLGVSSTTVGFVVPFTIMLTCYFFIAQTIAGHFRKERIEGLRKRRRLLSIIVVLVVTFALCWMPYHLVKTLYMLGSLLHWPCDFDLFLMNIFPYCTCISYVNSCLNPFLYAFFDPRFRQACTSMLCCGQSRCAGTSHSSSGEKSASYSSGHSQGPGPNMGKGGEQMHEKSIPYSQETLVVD

First: COc1cccc(OC)c1-n1c(NS(=O)(=O)C[C@H](O)c2ccc(F)cc2S(C)(=O)=O)nnc1-c1ccn(C)n1 (single isomer, unassigned) [Example 371.0, (R)-N-(4-(2,6-Dimethoxyphenyl)-5-(1-methyl-1H-pyrazol-3-yl)-4H-1,2,4-triazol-3-yl)-2-(4-fluoro-2-(methylsulfonyl)phenyl)-2-hydroxyethanesulfonamide or (S)-N-(4-(2,6-dimethoxyphenyl)-5-(1-methyl-1H-pyrazol-3-yl)-4H-1,2,4-triazol-3-yl)-2-(4-fluoro-2-(methylsulfonyl)phenyl)-2-hydroxyethanesulfonamide]
Second: COc1cccc(OC)c1-n1c(NS(=O)(=O)C[C@H](OC)c2ccc(F)cc2S(C)(=O)=O)nnc1-c1ccn(C)n1 (single isomer, unassigned) [Example 372.0, (R)-N-(4-(2,6-Dimethoxyphenyl)-5-(1-methyl-1H-pyrazol-3-yl)-4H-1,2,4-triazol-3-yl)-2-(4-fluoro-2-(methylsulfonyl)phenyl)-2-methoxyethanesulfonamide or (S)-N-(4-(2,6-dimethoxyphenyl)-5-(1-methyl-1H-pyrazol-3-yl)-4H-1,2,4-triazol-3-yl)-2-(4-fluoro-2-(methylsulfonyl)phenyl)-2-methoxyethanesulfonamide]
The EC50 of the first is 1.6-fold higher: 2.2 nM for the first, 1.4 nM for the second.

Going from `COc1cccc(OC)c1-n1c(NS(=O)(=O)C[C@H](OC)c2ccc(F)cc2S(C)(=O)=O)nnc1-c1ccn(C)n1` (single isomer, unassigned) [Example 373.0, (R)-N-(4-(2,6-Dimethoxyphenyl)-5-(1-methyl-1H-pyrazol-3-yl)-4H-1,2,4-triazol-3-yl)-2-(4-fluoro-2-(methylsulfonyl)phenyl)-2-methoxyethanesulfonamide or (S)-N-(4-(2,6-dimethoxyphenyl)-5-(1-methyl-1H-pyrazol-3-yl)-4H-1,2,4-triazol-3-yl)-2-(4-fluoro-2-(methylsulfonyl)phenyl)-2-methoxyethanesulfonamide] to `COc1cccc(OC)c1-n1c(NS(=O)(=O)C[C@H](OC)c2ccc(Cl)cc2S(C)(=O)=O)nnc1-c1ccn(C)n1` (single isomer, unassigned) [Example 381.0, (R)-2-(4-Chloro-2-(methylsulfonyl)phenyl)-N-(4-(2,6-dimethoxyphenyl)-5-(1-methyl-1H-pyrazol-3-yl)-4H-1,2,4-triazol-3-yl)-2-methoxyethanesulfonamide or (S)-2-(4-chloro-2-(methylsulfonyl)phenyl)-N-(4-(2,6-dimethoxyphenyl)-5-(1-methyl-1H-pyrazol-3-yl)-4H-1,2,4-triazol-3-yl)-2-methoxyethanesulfonamide], the EC50 falls from 1.3 nM to 0.29 nM (4.5-fold). The second is the more potent here.

First: COc1cccc(OC)c1-n1c(NS(=O)(=O)C[C@H](O)c2ccc(Cl)cc2)nnc1-c1ccn(C)n1 (single isomer, unassigned) [Example 374.0, (R)-2-(4-Chlorophenyl)-N-(4-(2,6-dimethoxyphenyl)-5-(1-methyl-1H-pyrazol-3-yl)-4H-1,2,4-triazol-3-yl)-2-hydroxyethanesulfonamide or (R)-2-(4-chlorophenyl)-N-(4-(2,6-dimethoxyphenyl)-5-(1-methyl-1H-pyrazol-3-yl)-4H-1,2,4-triazol-3-yl)-2-hydroxyethanesulfonamide]
Second: COc1cccc(OC)c1-n1c(NS(=O)(=O)C[C@H](OC)c2ccc(Cl)cn2)nnc1-c1ccn(C)n1 (single isomer, unassigned) [Example 376.0, (R)-2-(5-Chloropyridin-2-yl)-N-(4-(2,6-dimethoxyphenyl)-5-(1-methyl-1H-pyrazol-3-yl)-4H-1,2,4-triazol-3-yl)-2-methoxyethanesulfonamide or (S)-2-(5-chloropyridin-2-yl)-N-(4-(2,6-dimethoxyphenyl)-5-(1-methyl-1H-pyrazol-3-yl)-4H-1,2,4-triazol-3-yl)-2-methoxyethanesulfonamide]
The EC50 of the first is 4.1-fold higher: 7 nM for the first, 1.7 nM for the second. The second is the more potent here.

Going from `COc1cccc(OC)c1-n1c(NS(=O)(=O)C[C@H](O)c2ccc(Cl)cc2)nnc1-c1ccn(C)n1` (single isomer, unassigned) [Example 375.0, (R)-2-(4-Chlorophenyl)-N-(4-(2,6-dimethoxyphenyl)-5-(1-methyl-1H-pyrazol-3-yl)-4H-1,2,4-triazol-3-yl)-2-hydroxyethanesulfonamide or (R)-2-(4-chlorophenyl)-N-(4-(2,6-dimethoxyphenyl)-5-(1-methyl-1H-pyrazol-3-yl)-4H-1,2,4-triazol-3-yl)-2-hydroxyethanesulfonamide] to `COc1cccc(OC)c1-n1c(NS(=O)(=O)C[C@H](OC)c2ccc(Cl)cn2)nnc1-c1ccn(C)n1` (single isomer, unassigned) [Example 377.0, (R)-2-(5-Chloropyridin-2-yl)-N-(4-(2,6-dimethoxyphenyl)-5-(1-methyl-1H-pyrazol-3-yl)-4H-1,2,4-triazol-3-yl)-2-methoxyethanesulfonamide or (S)-2-(5-chloropyridin-2-yl)-N-(4-(2,6-dimethoxyphenyl)-5-(1-methyl-1H-pyrazol-3-yl)-4H-1,2,4-triazol-3-yl)-2-methoxyethanesulfonamide], the EC50 falls from 5.9 nM to 0.6 nM (9.8-fold).

First: COc1cccc(OC)c1-n1c(NS(=O)(=O)[C@H](C)[C@@H](C)c2ncc(C)cn2)nnc1-c1nc(C)cs1 (stereo in doubt) [Example 1.0, (2R,3 S)-N-(4-(2,6-dimethoxyphenyl)-5-(4-methylthiazol-2-yl)-4H-1,2,4-triazol-3-yl)-3-(5-methylpyrimidin-2-yl)butane-2-sulfonamide]
Second: COc1cccc(OC)c1-n1c(NS(=O)(=O)[C@H](C)[C@@H](C)c2ncc(C)cn2)nnc1-c1csc(C)n1 (stereo in doubt) [Example 2.0, (2R,3S)-N-(4-(2,6-dimethoxyphenyl)-5-(2-methylthiazol-4-yl)-4H-1,2,4-triazol-3-yl)-3-(5-methylpyrimidin-2-yl)butane-2-sulfonamide]
The EC50 of the first is 2.5-fold lower: 0.13 nM for the first, 0.32 nM for the second. The first is the more potent here.

First: COc1cccc(OC)c1-n1c(NS(=O)(=O)C(C)Cc2ncc(F)cn2)nnc1-c1cc(C)no1 (stereo in doubt) [Example 57.0, (R)-N-(4-(2,6-dimethoxyphenyl)-5-(3-methylisoxazol-5-yl)-4H-1,2,4-triazol-3-yl)-1-(5-fluoropyrimidin-2-yl)propane-2-sulfonamide and (R)-N-(4-(2,6-dimethoxyphenyl)-5-(3-methylisoxazol-5-yl)-4H-1,2,4-triazol-3-yl)-1-(5-fluoropyrimidin-2-yl)propane-2-sulfonamide]
Second: COc1ncnc(OC)c1-n1c(NS(=O)(=O)[C@@H](C)[C@H](C)c2ncc(C)cn2)nnc1-c1nc(C)cs1 [Example 3.0, (2S,3R)-N-(4-(4,6-dimethoxypyrimidin-5-yl)-5-(4-methylthiazol-2-yl)-4H-1,2,4-triazol-3-yl)-3-(5-methylpyrimidin-2-yl)butane-2-sulfonamide]
The EC50 of the first is 16-fold higher: 42 nM for the first, 2.6 nM for the second.

`COc1ncnc(OC)c1-n1c(NS(=O)(=O)[C@@H](C)[C@H](OC)c2ncc(C)cn2)nnc1-c1nc(C2CC2)cs1` [Example 4.0, (1R,2S)-N-(5-(4-cyclopropylthiazol-2-yl)-4-(4,6-dimethoxypyrimidin-5-yl)-4H-1,2,4-triazol-3-yl)-1-methoxy-1-(5-methylpyrimidin-2-yl)propane-2-sulfonamide] gave an EC50 of 0.92 nM.

Source: patent US11046680B1, “Heteroaryl-substituted triazoles as APJ receptor agonists” (priority 2016, dated 2021)
